Consider five substances from patent US20240148917A1, “PNA PROBES FOR PRETARGETED IMAGING AND THERAPY” (Zytox Therapeutics AB, priority 2020, published 2024).

Where “and” joins values, the source holds several entries; their conditions need not be identical. Equal entries are not always repeated. {DOTA-AEEA-S-S} = N-terminal DOTA chelator joined through an AEEA linker and two serines; {EEY-NH2} = C-terminal Glu-Glu-Tyr amide

Data set [1] in a line: In vitro stability of 177Lu-labeled probes (EDTA challenge, PBS control). Type of data set: physicochemical. The conditions noted are these: 177Lu-labeled probe, 500-fold molar excess of EDTA. Here is the method:
To evaluate stability, a fraction of the freshly radiolabeled conjugate (0.4 μg) was incubated with 500-fold molar excess of EDTA for 60 min at 37° C. Incubation was also performed in PBS as a control. The test was run in triplicates.

The subject of data set [2] is ZHER2:342-SR-HP15. Nature of the data set: SPR hybridization of complementary PNA probes to immobilized ZHER2:342-SR-HP15. In kind it is binding. The conditions noted are these: for kd: dissociation 10 000 s; for affinity to ZHER2:342-SR-HP15 relative to HP16: SPR, kd too slow to determine. How it is done:
The kinetic parameters for hybridization of the PNA probes were analyzed using surface plasmon resonance (SPR) on a Biacore™ 8K instrument (GE Healthcare). Dextran chips Series S Sensor CM5 (GE Healthcare), were functionalized with ZHER2:342-SR-HP15 on four surfaces to 385, 194, 185 and 353 resonance units (RU) using standard amine coupling procedures. A reference surface on each chip was subjected to activation followed by deactivation. The complementary PNA probes HP16, HP17, HP18 and HP19 were injected at 5 concentrations; 22.6, 45.3, 90.6, 181.25 and 362.5 nM using a single cycle injection. Association for each concentration was allowed for 300 s, followed by the next injection and association phase. After injection of the final concentration, dissociation was allowed for 10 000 s (2 h 47 min) before regeneration with 10 mM HCl for 30 s followed by 15 mM NaOH for 30 s. All runs were performed in PBST (0.05% Tween-20) pH 7.4 using a flow rate of […] at 25° C. Kinetic parameters were calculated using 1:1 binding model in Biacore Insight Evaluation software.

For data set [3], the system named is HP15. In words: Melting temperature of PNA hybridization complexes with HP15 (UV absorbance at 260 nm). The conditions noted are these: duplex with HP15, monitored at 260 nm. In kind it is physicochemical. How it is done: Melting temperatures for HP15:HP16, HP15:HP17 and HP15:HP18 were determined by monitoring UV absorbance at 260 nm (Chirascan™, Applied Photophysics) at a temperature range from 20 to 95° C., using a temperature change of 1° C./min. The PNA complexes were heated to 80° C. for 5 min and were then allowed to hybridize at room temperature for 5 min prior to UV monitoring at room temperature for 5 min. CD spectra were collected before and after determination of thermal denaturation. The melting temperature for the HP15:HP19 complex was determined using a Varian Cary 50 Bio UV-visual spectrophotometer equipped with a single-cell Peltier thermostat controlled cuvette holder. The temperature in the cell was adjusted at a speed of 0.5° C./min between 20 to 80° C., and measurements were taken at 260 nm after a 60 s equilibration at each temperature point.

In data set [4] the test system is SKOV3 xenografts. Nature of the data set: Estimated dosimetry: areas under time-activity plots for kidney and tumor. The conditions noted are these: non-decay corrected data, 4 and 144 h, pretargeted. In kind it is in vivo, BALB/c nu/nu mice. Here is the method: To estimate a ratio of absorbed doses in tumor and kidneys, cumulated activity in kidney and tumor were assessed. The estimation was based on a clinically validated two time point approach (Freedman 2020). The biodistribution data were non-decay corrected and areas under time-activity plot was calculated using GraphPad Prism software. The assumptions were that the main absorbed dose will be due to beta-particles, as cross-doses would be negligible, and the absorbed fraction would be equal to 1.

Where [5] appears, read: binding to immobilized ZHER2:342-SR-HP15, SPR.

What is called Kd is the equilibrium constant for the complex coming apart. The low end stands for tighter binding, the high end for weaker binding. What is called Tm is the temperature at which the thermal transition is half complete. As for “DOTA-AEEA-S-S-a-a-c-a-c-c-a-g-g-E-E-Y-NH2 (AACACCAGG; chemistry not fully specified) [HP16, secondary probe, 9-mer PNA]”, the “Stability (×500 EDTA), 37° C., 1 h” value in data set [1] is recorded as 100 ± 0. Also, in data set [2] (setting [5]), the ka stood at 46000 M⁻¹ s⁻¹ and the kd stood at 1.2e-05 s⁻¹. Further, the Kd in data set [2] (binding to immobilized ZHER2:342-SR-HP15, SPR, 25° C., 1:1 model) was ~0.28 nM and 0.28 nM. In addition, in data set [3], the Tm stood at 73 °C. Besides, in data set [4], the “Tumor-to-kidney ratio (areas under time-activity plots)” value (from here on “Tumor-to-kidney ratio”) is listed as 3.8.
Turning to “DOTA-AEEA-S-S-a-c-c-a-g-g-E-E-Y-NH2 [HP19]”, in data set [2] (setting [5]), the ka amounted to 2.1e+07 M⁻¹ s⁻¹ and the kd stood at 0.072 s⁻¹. The substance further showed a Kd in data set [2] (interaction with HP15, SPR) of 3.4 nM. Also, in data set [3], the Tm was 55 °C.
As for “DOTA-AEEA-S-S-a-t-c-a-a-c-a-c-c-a-g-g-E-E-Y-NH2 (ATCAACACCAGG; chemistry not fully specified) [HP17, secondary probe, 12-mer PNA]”, in data set [1], the “Stability (×500 EDTA), 37° C., 1 h” value amounted to 100 ± 0. Also, in data set [2], the “affinity to ZHER2:342-SR-HP15 relative to HP16” value is “estimated to be higher”. In data set [2] (setting [5]), the ka turned out to be 43000 M⁻¹ s⁻¹ and the kd entry is given as “too slow to be determined”. Also, the melting temperature (Tm) in data set [3] turned out to be 75 °C. Further, the “Tumor-to-kidney ratio” value in data set [4] is on record as 2.8.
For “DOTA-AEEA-S-S-a-t-c-a-t-c-a-a-c-a-c-c-a-g-g-E-E-Y-NH2 (ATCATCAACACCAGG; all peptide nucleic acid (PNA), 5' {DOTA-AEEA-S-S}, 3' {EEY-NH2}) [HP18, secondary probe, 15-mer PNA]”, the “Stability (×500 EDTA), 37° C., 1 h” value in data set [1] was found to be 100 ± 0. In addition, the “affinity to ZHER2:342-SR-HP15 relative to HP16” value in data set [2] is reported as “estimated to be higher”. Further, in data set [2] (setting [5]), the ka came out at 57000 M⁻¹ s⁻¹ and the kd entry is on record as “too slow to be determined”. Moreover, the Tm in data set [3] is 87 °C. Also, in data set [4], the “Tumor-to-kidney ratio” value was 2.0.
Consider “DOTA-AEEA-S-S-g-a-c-t-a-c-a-t-c-c-a-g-a-c-t-E-E-Y-NH2 (GACTACATCCAGACT; all peptide nucleic acid (PNA), 5' {DOTA-AEEA-S-S}, 3' {EEY-NH2}) [HP2, first-generation secondary PNA probe (Westerlund et al, 2015), reference compound]”, for which, in data set [4], the “Tumor-to-kidney ratio” value is 2.0.
